Measurements from paper PMC4965013, “Open Source Drug Discovery with the Malaria Box Compound Collection for Neglected Diseases and Beyond” (PLoS Pathogens, 2016).

Experiments:
P. falciparum = assay: EC50 listed in S2 Table Metabolomics (used to set the concentration tested); format: cell-based; settings: Plasmodium falciparum; EC50 used for Factor_XEC50 in metabolomics; read-out: EC50_nM
T. cruzi Tulahuen = settings: ref [84]; read-out: Trypanosoma cruzi Tulahuen intracellular amastigotes in MRC5 cell line EC50; cited from earlier work
Atg8-Atg3 = tested on: Atg8-Atg3; parameters: method as in ref [38] (a number printed in a supplementary file, which may have a reference list of its own: not looked up in the article's list); settings: ref [38]; cited from earlier work
[1] = tested on: P. falciparum 3D7 trophozoites; assay: Metabolomic fingerprint profiling LC-MS; format: cell-based, Plasmodium falciparum; parameters: UDP-D-glucose / ADP-D-glucose: unit not given here; settings: for Acetyllysine / N-acetyl-L-ornithine / N-carbamoyl-L-aspartate / NADPH / dAMP / dCMP / dTDP / dTMP / dTTP / dihydroorotate / orotate / DLH / DLS/SDL/SID / PD / PEE / PVNF / 3-phosphoglycerate / ADP-D-glucose / ATP / CDP / D-sedoheptulose-1/7-phosphate / FAD / GMP / NAD+ / NADP+ / Octoluse Bisphosphate / Pyroglutamic acid / UDP-D-glucose / UDP-D-glucuronate / UDP-N-acetyl-glucosamine / UDP / UMP / UTP / a-ketoglutarate / citrate/isocitrate / cytidine / dATP / dGMP/AMP / fumarate / glucose-1/6-phosphate / glycerate / guanine / guanosine / hypoxanthine / indole / inosine / nicotinate / ornithine / phosphoenolpyruvate / pyruvate / ribose-phosphate / sarcosine/alanine / sn-glycerol-3-phosphate / succinate/methylmalonic acid / uridine / xanthosine: S2 Table Metabolomics; for Acetyllysine: metabolite Acetyllysine; for N-acetyl-L-ornithine: metabolite N-acetyl-L-ornithine; for N-carbamoyl-L-aspartate: metabolite N-carbamoyl-L-aspartate; for NADPH: metabolite NADPH; for dAMP: metabolite dAMP; for dCMP: metabolite dCMP; for dTDP: metabolite dTDP; for dTMP: metabolite dTMP; for dTTP: metabolite dTTP; for dihydroorotate: metabolite dihydroorotate; for orotate: metabolite orotate; for DLH: peptide DLH; for DLS/SDL/SID: peptide DLS/SDL/SID; for PD: peptide PD; for PEE: peptide PEE; for PVNF: peptide PVNF; for 3-phosphoglycerate: metabolite 3-phosphoglycerate; for ADP-D-glucose: metabolite ADP-D-glucose; for ATP: metabolite ATP; for CDP: metabolite CDP; for CDP / D-sedoheptulose-1/7-phosphate / GMP / Octoluse Bisphosphate / UDP / UMP / UTP / citrate/isocitrate / dGMP/AMP / fumarate / glucose-1/6-phosphate / glycerate / guanine / guanosine / inosine / pyruvate / sarcosine/alanine / succinate/methylmalonic acid / uridine / xanthosine: change in metabolite level after compound treatment; for D-sedoheptulose-1/7-phosphate: metabolite D-sedoheptulose-1/7-phosphate; for FAD: metabolite FAD; for GMP: metabolite GMP; for NAD+: metabolite NAD+; for NADP+: metabolite NADP+; for Octoluse Bisphosphate: metabolite Octoluse Bisphosphate; for Pyroglutamic acid: metabolite Pyroglutamic acid; for UDP-D-glucose: metabolite UDP-D-glucose; for UDP-D-glucuronate: metabolite UDP-D-glucuronate; for UDP-N-acetyl-glucosamine: metabolite UDP-N-acetyl-glucosamine; for UDP: metabolite UDP; for UMP: metabolite UMP; for UTP: metabolite UTP; for a-ketoglutarate: metabolite a-ketoglutarate; for citrate/isocitrate: metabolite citrate/isocitrate; for cytidine: metabolite cytidine; for dATP: metabolite dATP; for dGMP/AMP: metabolite dGMP/AMP; for fumarate: metabolite fumarate; for glucose-1/6-phosphate: metabolite glucose-1/6-phosphate; for glycerate: metabolite glycerate; for guanine: metabolite guanine; for guanosine: metabolite guanosine; for hypoxanthine: metabolite hypoxanthine; for indole: metabolite indole; for inosine: metabolite inosine; for 2_3-Diphosphoglyceric acid / 4-phosphopantothenate / 6-phospho-D-gluconate / FMN / IMP / Pyrophosphate / Sedoheptoluse bisphosphate / cyclic-AMP / glutathione disulfide / lactate / myo-inositol: metabolite level change after treatment; for nicotinate: metabolite nicotinate; for ornithine: metabolite ornithine; for phosphoenolpyruvate: metabolite phosphoenolpyruvate; for pyruvate: metabolite pyruvate; for ribose-phosphate: metabolite ribose-phosphate; for sarcosine/alanine: metabolite sarcosine/alanine; for sn-glycerol-3-phosphate: metabolite sn-glycerol-3-phosphate; for succinate/methylmalonic acid: metabolite succinate/methylmalonic acid; for uridine: metabolite uridine; for xanthosine: metabolite xanthosine
[2] = tested on: P. falciparum M1 aminopeptidase; parameters: method as in ref [23] (a number printed in a supplementary file, which may have a reference list of its own: not looked up in the article's list); settings: ref [23]; cited from earlier work
[3] = tested on: P. falciparum M17 aminopeptidase; parameters: method as in ref [23] (a number printed in a supplementary file, which may have a reference list of its own: not looked up in the article's list); settings: ref [23]; cited from earlier work
[4] = tested on: PfCDPK1, PfPK6, PfCK2, PfGSK3, PfCLK1, Pfmap2, PfPK7, PfNek2, PfNek4, FIKK4.2, FIKK10.2, PfCK1, PfPK5; assay: Thermal Shift Assay on recombinant Pf kinases; format: binding, P. falciparum; settings: 2 µM kinase, 5 molar excess of compound

For Cc1ccc(Nc2nc(-c3ccccn3)cs2)cc1 [MMV007907], the EC50 (P. falciparum) is given as 350 nM, the EC50 (T. cruzi Tulahuen) is given as 281 nM and the “PPI inhibitors of Atg8-Atg3 interaction” value (Atg8-Atg3) is given as “PPI inhibitors”. The Acetyllysine [1] was -0.3916, the N-acetyl-L-ornithine [1] was -0.2705 and the N-carbamoyl-L-aspartate [1] was 0.4477. The NADPH [1] was 1.503, the dAMP [1] was -0.05008 and the dCMP [1] was -0.3338. The dTDP [1] was -0.4245, the dTMP [1] was -0.5337 and the dTTP [1] was 0.04887. The dihydroorotate [1] was 0.6541, the orotate [1] was 0.3803 and the DLH [1] was -0.1443. The DLS/SDL/SID [1] was -0.03559, the PD [1] was -0.7075 and the PEE [1] was -0.4235. It also gave a PVNF [1] of 0.2287, a 3-phosphoglycerate [1] of 0.2283 and an ADP-D-glucose [1] of 0.03116. For the same compound, the ATP [1] was 0.08371, the CDP [1] was -0.4596 and the D-sedoheptulose-1/7-phosphate [1] was -0.2275. For the same compound, the FAD [1] was 0.1798, the GMP [1] was 0.08425 and the “NAD+” value [1] was 0.05427. For the same compound, the “NADP+” value [1] was -0.07684, the “Octoluse Bisphosphate” value [1] was -0.09051 and the Pyroglutamic acid [1] was 0.2079. The UDP-D-glucose [1] was -0.006173, the UDP-D-glucuronate [1] was 0.1137 and the UDP-N-acetyl-glucosamine [1] was 0.001514. It also gave a UDP [1] of -0.4364, a UMP [1] of -0.7518 and a UTP [1] of 0.01959. For the same compound, the a-ketoglutarate [1] was 0.135, the citrate/isocitrate [1] was 0.264 and the cytidine [1] was 0.5859. It also gave a dATP [1] of -0.01819, a dGMP/AMP [1] of -0.2513 and a fumarate [1] of -0.275. The glucose-1/6-phosphate [1] was -0.0724, the glycerate [1] was 0.1576 and the guanine [1] was 0.3676. It also gave a guanosine [1] of 0.05893, a hypoxanthine [1] of 0.3977 and an indole [1] of 0.3227. For the same compound, the inosine [1] was 0.344, the 2_3-Diphosphoglyceric acid [1] was -0.02223 and the 4-phosphopantothenate [1] was 0.1153. It also gave a 6-phospho-D-gluconate [1] of 0.05128, an FMN [1] of 0.1654 and an IMP [1] of -0.204. It also gave a Pyrophosphate [1] of 0.1304, a Sedoheptoluse bisphosphate [1] of -0.1099 and a cyclic-AMP [1] of 0.1921. For the same compound, the glutathione disulfide [1] was -0.02789, the lactate [1] was 0.5292 and the myo-inositol [1] was 0.004909. For the same compound, the nicotinate [1] was 0.3366, the ornithine [1] was 0.4059 and the phosphoenolpyruvate [1] was 0.0562. For the same compound, the pyruvate [1] was 0.2612, the ribose-phosphate [1] was -0.06101 and the sarcosine/alanine [1] was 0.3466. It also gave a sn-glycerol-3-phosphate [1] of 0.2394, a succinate/methylmalonic acid [1] of 0.03717 and a uridine [1] of 0.4023. The xanthosine [1] was -0.2403.

For COc1cc(-c2nc(-c3ccccc3)c(-c3ccccc3)[nH]2)cc(OC)c1O [MMV020750], the “inhibition of M1 in words” value [2] is listed as “moderate competitive inhibitors” and the “inhibition of M17 in words” value [3] is listed as “moderate competitive inhibitors”.

In the case of Cc1cccc(-n2ncc3c(=O)[nH]c(-n4nc(C)cc4NC(=O)c4cc5ccccc5o4)nc32)c1 [MMV403679], the “thermal shift (ΔTm)” value [4] is reported as “approximately 2 °C”.

For O=C(Nc1ccc(Cl)c(Cl)c1)Nc1ccc(Cl)c(Cl)c1 [MMV665852], the “thermal shift (ΔTm)” value [4] was “approximately 2 °C”.

In the case of c1ccc(Cn2c(N=Nc3c(Nc4ccccc4)ccc4ccccc34)nc3ccccc32)cc1 [MMV666023], the “inhibition of M1 in words” value [2] is listed as “moderate competitive inhibitors”, the EC50 (P. falciparum) is listed as 36.8 nM and the “inhibition of M17 in words” value [3] is listed as “moderate competitive inhibitors”. It also gave an Acetyllysine [1] of 0.5853, a N-acetyl-L-ornithine [1] of 0.306 and a N-carbamoyl-L-aspartate [1] of 1.052. The NADPH [1] was -0.03386, the dAMP [1] was 0.6013 and the dCMP [1] was -0.4205. The dTDP [1] was 0.3507, the dTMP [1] was 0.8714 and the dTTP [1] was -0.2342. The dihydroorotate [1] was 1.31, the orotate [1] was -0.6227 and the DLH [1] was -0.403. For the same compound, the DLS/SDL/SID [1] was -0.4178, the PD [1] was 0.5075 and the PEE [1] was 0.08891. The PVNF [1] was -0.6731, the 3-phosphoglycerate [1] was 0.03204 and the ADP-D-glucose [1] was -0.0135. It also gave an ATP [1] of -0.2499, a CDP [1] of 0.1136 and a D-sedoheptulose-1/7-phosphate [1] of 0.2353. For the same compound, the FAD [1] was 0.06401, the GMP [1] was -0.6431 and the “NAD+” value [1] was 0.6404. For the same compound, the “NADP+” value [1] was -0.009365, the “Octoluse Bisphosphate” value [1] was -0.1419 and the Pyroglutamic acid [1] was -0.07348. It also gave a UDP-D-glucose [1] of 0.05216, a UDP-D-glucuronate [1] of -0.02666 and a UDP-N-acetyl-glucosamine [1] of 0.05509. It also gave a UDP [1] of 0.01697, a UMP [1] of -0.4292 and a UTP [1] of -0.424. For the same compound, the a-ketoglutarate [1] was -0.06383, the citrate/isocitrate [1] was 0.04119 and the cytidine [1] was 0.02473. It also gave a dATP [1] of 0.1105, a dGMP/AMP [1] of 0.2165 and a fumarate [1] of 0.9246. For the same compound, the glucose-1/6-phosphate [1] was -0.4138, the glycerate [1] was 0.03697 and the guanine [1] was -0.03399. It also gave a guanosine [1] of -0.2347, a hypoxanthine [1] of -0.04929 and an indole [1] of 0.02614. The inosine [1] was -0.0248, the 2_3-Diphosphoglyceric acid [1] was 0.0759 and the 4-phosphopantothenate [1] was 0.08574. It also gave a 6-phospho-D-gluconate [1] of 0.115, an FMN [1] of -0.1537 and an IMP [1] of 0.4441. For the same compound, the Pyrophosphate [1] was 0.2082, the Sedoheptoluse bisphosphate [1] was 0.1996 and the cyclic-AMP [1] was 0.01699. For the same compound, the glutathione disulfide [1] was 0.1273, the lactate [1] was -0.7178 and the myo-inositol [1] was -0.07069. It also gave a nicotinate [1] of 0.08369, an ornithine [1] of 0.4536 and a phosphoenolpyruvate [1] of -0.0645. For the same compound, the pyruvate [1] was -0.159, the ribose-phosphate [1] was -0.0332 and the sarcosine/alanine [1] was -0.02978. For the same compound, the sn-glycerol-3-phosphate [1] was -0.2072, the succinate/methylmalonic acid [1] was 0.009689 and the uridine [1] was -0.07701. For the same compound, the xanthosine [1] was -0.07995.
